Experimental data taken from PubChem BioAssay (NCI).
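Interpolation was linear, between the two tested concentrations surrounding the appropriate level; five concentrations were tested over 48 hours in 96-well plates. GI50 is the concentration that inhibits growth by half. TGI: total growth inhibition.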

Key:
Experiment in all cases: NCI anticancer screen, dose series, 48 h
[1] = test system: RPMI-8226 leukemia
[2] = test system: OVCAR-8 ovarian
[3] = test system: MALME-3M melanoma
[4] = test system: U251 CNS
[5] = test system: SN12C renal
[6] = test system: CAKI-1 renal
[7] = test system: OVCAR-3 ovarian
[8] = test system: SF-268 CNS
[9] = test system: SNB-75 CNS
[10] = test system: HOP-62 NSCLC
[11] = test system: UACC-62 melanoma
[12] = test system: KM12 colon
[13] = test system: HCT-116 colon
[14] = test system: NCI-H460 lung
[15] = test system: SF-295 CNS
[16] = test system: EKVX NSCLC
[17] = test system: PC-3 prostate
[18] = test system: TK-10 renal
[19] = test system: RXF 393 renal
[20] = test system: MDA-MB-231 breast
[21] = test system: HOP-92 NSCLC
[22] = test system: M14 melanoma
[23] = test system: SK-MEL-28 melanoma
[24] = test system: HCC-2998 colon
[25] = test system: SF-539 CNS
[26] = test system: COLO 205 colon
[27] = test system: UO-31 renal
[28] = test system: DU-145 prostate

For `COc1ccc([C@H]2C(=O)N(c3cc(OC)c(OC)c(OC)c3)[C@@H]2c2ccc(OC)c(O)c2)cc1`, which GI50 [1] is on record?
Its GI50 is 38.7 nM.

What about the TGI [1] of the same molecule?
Its TGI is 17300 nM.

And the GI50 [2]?
Its GI50 is 29.9 nM.

What about the TGI [2] of the same molecule?
The TGI was greater than 100000 nM.

What about the GI50 [3] of the same molecule?
Its GI50 is 35.7 nM.

And the TGI [3]?
Its TGI is 34500 nM.

What about the GI50 [4] of the same molecule?
The GI50 was 32.2 nM.

What about the TGI [4] of the same molecule?
The TGI was greater than 100000 nM.

And the GI50 [5]?
The GI50 was 43.5 nM.

What about the TGI [5] of the same molecule?
Its TGI is greater than 100000 nM.

What about the GI50 [6] of the same molecule?
Its GI50 is 49 nM.

And the TGI [6]?
The TGI was greater than 100000 nM.

And the GI50 [7]?
The GI50 was 63.5 nM.

And the TGI [7]?
The TGI was greater than 100000 nM.

And the GI50 [8]?
The GI50 was 1410 nM.

What about the TGI [8] of the same molecule?
The TGI was greater than 100000 nM.

And the GI50 [9]?
Its GI50 is 861 nM.

And the TGI [9]?
The TGI was greater than 100000 nM.

What about the GI50 [10] of the same molecule?
The GI50 was 56.2 nM.

What about the TGI [10] of the same molecule?
The TGI was greater than 100000 nM.

What about the GI50 [11] of the same molecule?
The GI50 was 44.8 nM.

And the TGI [11]?
The TGI was 26700 nM.

And the GI50 [12]?
Its GI50 is 44.5 nM.

What about the TGI [12] of the same molecule?
Its TGI is greater than 100000 nM.

What about the GI50 [13] of the same molecule?
Its GI50 is 29.2 nM.

And the TGI [13]?
The TGI was greater than 100000 nM.

And the GI50 [14]?
The GI50 was 36.5 nM.

What about the TGI [14] of the same molecule?
The TGI was 24800 nM.

And the GI50 [15]?
The GI50 was 29.8 nM.

What about the TGI [15] of the same molecule?
The TGI was 22700 nM.

And the GI50 [16]?
The GI50 was 40.1 nM.

And the TGI [16]?
The TGI was greater than 100000 nM.

And the GI50 [17]?
Its GI50 is 50 nM.

And the TGI [17]?
The TGI was greater than 100000 nM.

And the GI50 [18]?
The GI50 was 16200 nM.

What about the TGI [18] of the same molecule?
The TGI was greater than 100000 nM.

And the GI50 [19]?
The GI50 was 46.7 nM.

And the TGI [19]?
The TGI was 41200 nM.

And the GI50 [20]?
Its GI50 is 31.8 nM.

What about the TGI [20] of the same molecule?
Its TGI is greater than 100000 nM.

And the GI50 [21]?
The GI50 was 1190 nM.

What about the TGI [21] of the same molecule?
The TGI was 78300 nM.

What about the GI50 [22] of the same molecule?
The GI50 was 34.1 nM.

What about the TGI [22] of the same molecule?
The TGI was 17500 nM.

And the GI50 [23]?
Its GI50 is 4030 nM.

And the TGI [23]?
The TGI was greater than 100000 nM.

What about the GI50 [24] of the same molecule?
The GI50 was 36.1 nM.

What about the TGI [24] of the same molecule?
The TGI was 15500 nM.

What about the GI50 [25] of the same molecule?
Its GI50 is 20.4 nM.

And the TGI [25]?
The TGI was 53.7 nM.

And the GI50 [26]?
Its GI50 is 30.3 nM.

What about the TGI [26] of the same molecule?
The TGI was 83 nM.

And the GI50 [27]?
Its GI50 is 72 nM.

What about the TGI [27] of the same molecule?
Its TGI is 38200 nM.

And the GI50 [28]?
Its GI50 is 52.7 nM.

And the TGI [28]?
The TGI was greater than 100000 nM.
